Reference: article PMC6399220, “Engineered XylE as a tool for mechanistic investigation and ligand discovery of the glucose transporters GLUTs” (Cell Discovery, 2019)

Tests used:
Type in all cases: binding
[1] = molecular target: T1, XylE (WT, xylose:proton symporter) (Escherichia coli, UniProt P0AGF4); assay: MST
T1 sequence (P0AGF4 1-491): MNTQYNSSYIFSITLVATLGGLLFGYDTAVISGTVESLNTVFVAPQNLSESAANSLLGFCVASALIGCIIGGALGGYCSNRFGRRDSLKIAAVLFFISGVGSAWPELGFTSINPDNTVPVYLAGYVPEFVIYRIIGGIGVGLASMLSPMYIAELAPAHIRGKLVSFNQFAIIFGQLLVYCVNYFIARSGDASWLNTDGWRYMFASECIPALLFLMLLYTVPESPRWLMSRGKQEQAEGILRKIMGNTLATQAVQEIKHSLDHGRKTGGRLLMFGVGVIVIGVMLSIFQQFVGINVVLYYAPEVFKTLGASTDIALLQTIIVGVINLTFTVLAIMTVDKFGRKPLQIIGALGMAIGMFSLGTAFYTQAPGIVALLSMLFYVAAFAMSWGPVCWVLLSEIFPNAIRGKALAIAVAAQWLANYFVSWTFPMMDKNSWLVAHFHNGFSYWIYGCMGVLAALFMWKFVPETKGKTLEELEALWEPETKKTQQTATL

[2] = molecular target: T2, XylE-WW (xylose:proton symporter XylE) (Escherichia coli, UniProt P0AGF4, G58W/L315W); assay: MST
[3] = molecular target: T2, XylE-WW (xylose:proton symporter XylE); assay: MST and ITC
[4] = molecular target: T1, XylE (WT, xylose:proton symporter); assay: ITC (MST almost identical)

| Structure (SMILES) | Kd [1] [µM] | Kd [2] [µM] | Kd [3] [µM] | Kd [4] [µM] |
| --- | --- | --- | --- | --- |
| OC[C@H]1OC(O)[C@H](O)[C@@H](O)[C@@H]1O (stereo partly drawn) [D-glucose] | 2080 ± 95.7 | 27.5 ± 0.5 |  |  |
| OC1OC[C@@H](O)[C@H](O)[C@H]1O (stereo partly drawn) [D-xylose] |  |  | 14.4 ± 0.2 | 843 ± 8 |
